Source: PMC11999280, “Design and screening of novel endosomal escape compounds that enhance functional delivery of oligonucleotides in vitro” (Molecular Therapy. Nucleic Acids, 2025)

Assays:
Assay type in all cases: cell-based
[1] = tested on: mCherry-GAL9 expressing U2OS cells; assay: GAL9 recruitment assay, U2OS; conditions: calculated mean from >3 independent exp.
Outline: (§1)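 Endosomal remodeling was inferred from recruitment of stably expressed mCherry-GAL9 into intracellular structures, quantified by confocal image analysis after compound dose-response treatment, fixation and Hoechst nuclear staining.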

[2] = tested on: HeLa_Luc705 cells (pLuc/705 splice-switching reporter); assay: Functional 705-SSO delivery, luciferase splice-switching assay; conditions: HeLa-Luc705 + 2 µM SSO, mean from >3 independent experiments
Outline: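 Cells seeded at 10,000/well were pre-incubated 24 h with 1–2 μM 2′-O-methyl phosphorothioate 705-SSO, then exposed to endosomal escape enhancer at the stated concentrations. After 24 h, cells were lysed in 0.1% Triton X-100 and firefly luciferase luminescence was read as the splice-correction signal. LF2000 lipofection with 100–200 nM SSO served as transfection control.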

[3] = tested on: mCherry-GAL9 expressing HepG2 cells; assay: GAL9 recruitment assay, HepG2; conditions: calculated mean from >3 independent exp.
Outline: as §1

[4] = tested on: mCherry-GAL9 expressing 16HBE cells; assay: GAL9 recruitment assay, 16HBE; conditions: calculated mean from >3 independent exp.
Outline: as §1

[5] = tested on: mCherry-GAL9 expressing HuH7 cells; assay: GAL9 recruitment assay, HuH7; conditions: calculated mean from >3 independent exp.
Outline: as §1

[6] = tested on: mCherry-GAL9 expressing NCI-H358 cells; assay: GAL9 recruitment assay, NCI-H358; conditions: calculated mean from >3 independent exp.
Outline: as §1

[7] = tested on: mCherry-GAL9 expressing SHSY5Y cells; assay: GAL9 recruitment assay, SHSY5Y; conditions: calculated mean from >3 independent exp.
Outline: as §1

[8] = tested on: mCherry-GAL9 expressing HEK293 cells; assay: GAL9 recruitment assay, HEK293; conditions: calculated mean from >3 independent exp.
Outline: as §1

[9] = tested on: mCherry-GAL9 expressing HeLa cells; assay: GAL9 recruitment assay, HeLa; conditions: calculated mean from >3 independent exp.
Outline: as §1

SMILES: COc1nn(C2CCNCC2)cc1Nc1ncc(F)c(-c2c[nH]c3ccccc23)n1 [EEE23]
- Gal9 response compared to reference ([1]; EEE 0.31 µM): 0.011
- Gal9 response compared to reference ([1]; EEE 0.62 µM): 0.012
- Gal9 response compared to reference ([1]; EEE 1.25 µM): 0.015
- Gal9 response compared to reference ([1]; EEE 2.5 µM): 0.015
- Gal9 response compared to reference ([1]; EEE 5 µM): 0.012
- Gal9 response compared to reference ([1]; EEE 10 µM): 0.017
- Luciferase expression compared to reference ([2]; EEE 5 µM): 65.259
- Luciferase expression compared to reference ([2]; EEE 1-1.25 µM): 0.775
- Luciferase expression compared to reference ([2]; EEE 2.5 - 3 µM): 1.207
- Gal9 response compared to reference ([3]; EEE 0.31 µM): 0.006
- Gal9 response compared to reference ([3]; EEE 0.62 µM): 0.006
- Gal9 response compared to reference ([3]; EEE 1.25 µM): 0.007
- Gal9 response compared to reference ([3]; EEE 2.5 µM): 0.005
- Gal9 response compared to reference ([3]; EEE 5 µM): 0.004
- Gal9 response compared to reference ([3]; EEE 10 µM): 0.005
- Gal9 response compared to reference ([4]; EEE 0.31 µM): 0.008
- Gal9 response compared to reference ([4]; EEE 0.62 µM): 0.010
- Gal9 response compared to reference ([4]; EEE 1.25 µM): 0.010
- Gal9 response compared to reference ([4]; EEE 2.5 µM): 0.012
- Gal9 response compared to reference ([4]; EEE 5 µM): 0.017
- Gal9 response compared to reference ([4]; EEE 10 µM): 0.032
- Gal9 response compared to reference ([5]; EEE 0.31 µM): 0.007
- Gal9 response compared to reference ([5]; EEE 0.62 µM): 0.008
- Gal9 response compared to reference ([5]; EEE 1.25 µM): 0.009
- Gal9 response compared to reference ([5]; EEE 2.5 µM): 0.009
- Gal9 response compared to reference ([5]; EEE 5 µM): 0.010
- Gal9 response compared to reference ([5]; EEE 10 µM): 0.011
- Gal9 response compared to reference ([6]; EEE 0.31 µM): 0.013
- Gal9 response compared to reference ([6]; EEE 0.62 µM): 0.015
- Gal9 response compared to reference ([6]; EEE 1.25 µM): 0.012
- Gal9 response compared to reference ([6]; EEE 2.5 µM): 0.017
- Gal9 response compared to reference ([6]; EEE 5 µM): 0.017
- Gal9 response compared to reference ([6]; EEE 10 µM): 0.021
- Gal9 response compared to reference ([7]; EEE 0.31 µM): 0.013
- Gal9 response compared to reference ([7]; EEE 0.62 µM): 0.015
- Gal9 response compared to reference ([7]; EEE 1.25 µM): 0.013
- Gal9 response compared to reference ([7]; EEE 2.5 µM): 0.013
- Gal9 response compared to reference ([7]; EEE 5 µM): 0.017
- Gal9 response compared to reference ([7]; EEE 10 µM): 0.087
- Gal9 response compared to reference ([8]; EEE 0.31 µM): 0.019
- Gal9 response compared to reference ([8]; EEE 0.62 µM): 0.015
- Gal9 response compared to reference ([8]; EEE 1.25 µM): 0.015
- Gal9 response compared to reference ([8]; EEE 2.5 µM): 0.016
- Gal9 response compared to reference ([8]; EEE 5 µM): 0.025
- Gal9 response compared to reference ([8]; EEE 10 µM): 0.042
- Gal9 response compared to reference ([9]; EEE 0.31 µM): 0.004
- Gal9 response compared to reference ([9]; EEE 0.62 µM): 0.005
- Gal9 response compared to reference ([9]; EEE 1.25 µM): 0.004
- Gal9 response compared to reference ([9]; EEE 2.5 µM): 0.005
- Gal9 response compared to reference ([9]; EEE 5 µM): 0.005
- Gal9 response compared to reference ([9]; EEE 10 µM): 0.008
